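Tested at 5 concentrations; 48 h exposure; 96-well plates; endpoints linearly interpolated, else capped at highest concentration. The concentration for 50% growth inhibition is given as GI50.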 Calls of active or inactive are those of the source. No stated cut-off is given here; in the data, active = GI50 up to about 1.1 µM and inactive = higher.
What was measured:
Assay in all cases: NCI-60 cell line screen, 48 h
T47D = tested on: T47D
NCI-H23 = tested on: NCI-H23
HT-29 = tested on: HT-29
HL-60 = tested on: HL-60
MDA-MB-231 = tested on: MDA-MB-231
RPMI-8226 = tested on: RPMI-8226
HCT-116 = tested on: HCT-116
RXF 393 = tested on: RXF 393
OVCAR-8 = tested on: OVCAR-8
SF-539 = tested on: SF-539
EKVX = tested on: EKVX
SN12C = tested on: SN12C
SK-OV-3 = tested on: SK-OV-3
U-251 = tested on: U-251
K562 = tested on: K562
NCI/ADR-RES = tested on: NCI/ADR-RES
SK-MEL-2 = tested on: SK-MEL-2
UO-31 = tested on: UO-31
UACC-257 = tested on: UACC-257
NCI-H226 = tested on: NCI-H226

Structure (SMILES)	GI50 (T47D)	GI50 (NCI-H23)	GI50 (HT-29)	GI50 (HL-60)	GI50 (MDA-MB-231)	GI50 (RPMI-8226)	GI50 (HCT-116)	GI50 (RXF 393)	GI50 (OVCAR-8)	GI50 (SF-539)	GI50 (EKVX)	GI50 (SN12C)	GI50 (SK-OV-3)	GI50 (U-251)	GI50 (K562)	GI50 (NCI/ADR-RES)	GI50 (SK-MEL-2)	GI50 (UO-31)	GI50 (UACC-257)	GI50 (NCI-H226)
OCc1cn(Cc2ccccc2)c2ccccc12	< 0.0411 µM (active)	14.4 µM (inactive)	1.71 µM (inactive)	5.9 µM (inactive)	19.5 µM (inactive)	2.16 µM (inactive)	0.555 µM (active)	< 0.0316 µM (active)	13 µM (inactive)	> 34.5 µM (inactive)	> 73.1 µM (inactive)	26 µM (inactive)	11 µM (inactive)	1.02 µM (active)	4.48 µM (inactive)	15.2 µM (inactive)	2.56 µM (inactive)	> 87.7 µM (inactive)	–	–
O=C(O)C1CC(C2CCCCN2)CN2CCCCC12 (stereo not given)	> 100 µM (inactive)	> 100 µM (inactive)	> 100 µM (inactive)	–	> 100 µM (inactive)	> 100 µM (inactive)	> 100 µM (inactive)	> 100 µM (inactive)	> 100 µM (inactive)	57.5 µM (inactive)	> 100 µM (inactive)	> 100 µM (inactive)	> 100 µM (inactive)	> 100 µM (inactive)	> 100 µM (inactive)	> 100 µM (inactive)	> 100 µM (inactive)	> 100 µM (inactive)	> 100 µM (inactive)	> 100 µM (inactive)
CCn1c(=O)c2nc(SC)sc2n(-c2ccccc2)c1=S	55.7 µM (inactive)	46.8 µM (inactive)	47.2 µM (inactive)	3.08 µM (inactive)	> 100 µM (inactive)	74.6 µM (inactive)	58.7 µM (inactive)	67.3 µM (inactive)	68.7 µM (inactive)	69.2 µM (inactive)	> 100 µM (inactive)	86.9 µM (inactive)	94.6 µM (inactive)	> 100 µM (inactive)	11.3 µM (inactive)	44.5 µM (inactive)	28.6 µM (inactive)	16.6 µM (inactive)	> 100 µM (inactive)	41 µM (inactive)
COC(=O)C1CCC(=O)N1CN(C(C)=O)c1ccccc1Cl (stereo not given)	> 100 µM (inactive)	> 100 µM (inactive)	> 100 µM (inactive)	–	> 100 µM (inactive)	> 100 µM (inactive)	> 100 µM (inactive)	> 100 µM (inactive)	> 100 µM (inactive)	> 100 µM (inactive)	> 100 µM (inactive)	> 100 µM (inactive)	> 100 µM (inactive)	> 100 µM (inactive)	> 10 µM (inactive)	> 100 µM (inactive)	> 100 µM (inactive)	> 100 µM (inactive)	> 100 µM (inactive)	> 100 µM (inactive)
COc1ccc2oc(=N)c(C(=O)Nc3cccc4ccccc34)cc2c1	23.6 µM (inactive)	29.4 µM (inactive)	15.1 µM (inactive)	23.7 µM (inactive)	26 µM (inactive)	14.1 µM (inactive)	27.7 µM (inactive)	4.69 µM (inactive)	–	15.3 µM (inactive)	38.1 µM (inactive)	37.8 µM (inactive)	15.5 µM (inactive)	13 µM (inactive)	0.526 µM (active)	25.8 µM (inactive)	18.8 µM (inactive)	13 µM (inactive)	32 µM (inactive)	25.5 µM (inactive)
[N-]=[N+]=Nc1c([N+](=O)[O-])c(=O)n(-c2ccccc2)c2ccccc12	29.1 µM (inactive)	22 µM (inactive)	28.2 µM (inactive)	–	17.8 µM (inactive)	16 µM (inactive)	20.3 µM (inactive)	20 µM (inactive)	20.1 µM (inactive)	25.5 µM (inactive)	16.7 µM (inactive)	23.4 µM (inactive)	57.9 µM (inactive)	20.7 µM (inactive)	22.5 µM (inactive)	20.7 µM (inactive)	17.9 µM (inactive)	14.8 µM (inactive)	34.4 µM (inactive)	25.5 µM (inactive)
COc1ccc(C2=Nn3c(nc4sc(-c5ccccc5)cc4c3=O)SC2)cc1	> 100 µM (inactive)	> 100 µM (inactive)	> 100 µM (inactive)	> 100 µM (inactive)	> 100 µM (inactive)	> 100 µM (inactive)	92.3 µM (inactive)	> 10 µM (inactive)	> 100 µM (inactive)	> 100 µM (inactive)	> 100 µM (inactive)	> 100 µM (inactive)	> 100 µM (inactive)	> 100 µM (inactive)	> 10 µM (inactive)	> 100 µM (inactive)	–	> 100 µM (inactive)	> 100 µM (inactive)	> 100 µM (inactive)
CC(C)CC(NC=O)C(=O)NC(Cc1ccccc1)NC(=O)CNC(=O)C(C)NC(=O)OC(C)(C)C (stereo not given)	> 100 µM (inactive)	> 100 µM (inactive)	> 100 µM (inactive)	> 100 µM (inactive)	> 100 µM (inactive)	> 100 µM (inactive)	> 100 µM (inactive)	> 100 µM (inactive)	> 100 µM (inactive)	> 100 µM (inactive)	> 100 µM (inactive)	> 100 µM (inactive)	> 100 µM (inactive)	> 100 µM (inactive)	> 100 µM (inactive)	> 100 µM (inactive)	–	> 100 µM (inactive)	–	> 100 µM (inactive)
CC(=O)N1C(Nc2cccc3nc(C)ccc23)CCN1c1ccccc1 (stereo not given)	> 10 µM (inactive)	> 10 µM (inactive)	> 10 µM (inactive)	8.2 µM (inactive)	> 10 µM (inactive)	> 10 µM (inactive)	> 10 µM (inactive)	> 10 µM (inactive)	> 10 µM (inactive)	> 10 µM (inactive)	> 10 µM (inactive)	> 10 µM (inactive)	> 10 µM (inactive)	–	> 10 µM (inactive)	> 10 µM (inactive)	> 10 µM (inactive)	> 10 µM (inactive)	> 10 µM (inactive)	> 10 µM (inactive)
O=c1/c(=C/c2ccc(-c3ccc(Cl)cc3Cl)o2)sc2n1[C@@H](c1ccc(Cl)cc1)C=C(c1cc(F)c(Cl)cc1Cl)N=2	19.2 µM (inactive)	36.6 µM (inactive)	39.8 µM (inactive)	< 0.01 µM (active)	23.6 µM (inactive)	31.1 µM (inactive)	37.9 µM (inactive)	31.2 µM (inactive)	45.7 µM (inactive)	34.8 µM (inactive)	–	76.4 µM (inactive)	19.2 µM (inactive)	31.5 µM (inactive)	38.8 µM (inactive)	50.8 µM (inactive)	40.5 µM (inactive)	41.5 µM (inactive)	34.6 µM (inactive)	22 µM (inactive)
CCCCCCCCCCCC(=O)N(CCCCCCCCCCC(=O)O)CC(O)C(O)C(OC1OC(CO)C(O)C(O)C1O)C(O)CO (stereo not given)	> 100 µM (inactive)	> 100 µM (inactive)	> 100 µM (inactive)	> 100 µM (inactive)	> 100 µM (inactive)	50.7 µM (inactive)	> 100 µM (inactive)	> 100 µM (inactive)	> 100 µM (inactive)	> 100 µM (inactive)	> 100 µM (inactive)	> 100 µM (inactive)	> 100 µM (inactive)	> 100 µM (inactive)	95.1 µM (inactive)	> 100 µM (inactive)	> 100 µM (inactive)	> 100 µM (inactive)	> 100 µM (inactive)	> 100 µM (inactive)
O=C1Nc2ccc(S(=O)(=O)O)cc2/C1=N/Nc1ccccc1[N+](=O)[O-]	> 100 µM (inactive)	> 100 µM (inactive)	> 100 µM (inactive)	–	> 100 µM (inactive)	> 100 µM (inactive)	> 100 µM (inactive)	> 100 µM (inactive)	> 100 µM (inactive)	> 100 µM (inactive)	> 100 µM (inactive)	> 100 µM (inactive)	97.9 µM (inactive)	> 100 µM (inactive)	5.64 µM (inactive)	> 100 µM (inactive)	> 100 µM (inactive)	> 100 µM (inactive)	> 100 µM (inactive)	> 100 µM (inactive)
CCCCCCC(O)C(O)CCC(O)C1CCC(CCCCC(O)CC2=CC(C)OC2=O)O1 (stereo not given) [ACETOGENINS]	3.13 µM (inactive)	0.161 µM (active)	2.33 µM (inactive)	–	1.2 µM (inactive)	7.41 µM (inactive)	2.8 µM (inactive)	5.87 µM (inactive)	2.18 µM (inactive)	4.29 µM (inactive)	1.92 µM (inactive)	3.08 µM (inactive)	–	3.54 µM (inactive)	1.82 µM (inactive)	1.14 µM (inactive)	2.99 µM (inactive)	2.06 µM (inactive)	1.86 µM (inactive)	1.74 µM (inactive)
CCN(CC)C(=S)SC [METHYLDIETHYL CARBAMODITHIOATE]	> 100 µM (inactive)	> 100 µM (inactive)	> 100 µM (inactive)	> 100 µM (inactive)	> 100 µM (inactive)	> 100 µM (inactive)	> 100 µM (inactive)	> 100 µM (inactive)	> 100 µM (inactive)	> 100 µM (inactive)	> 100 µM (inactive)	> 100 µM (inactive)	> 100 µM (inactive)	> 100 µM (inactive)	> 100 µM (inactive)	> 100 µM (inactive)	> 100 µM (inactive)	–	> 100 µM (inactive)	> 100 µM (inactive)

Reference: ChEMBL document CHEMBL1201862, “PubChem BioAssay data set” (2004)
